Test results reported in patent US5733918A, “Condensed-Indan derivatives and pharmaceutically acceptable salts thereof” (Taiho Pharmaceutical Co., Ltd., priority 1994, dated 1998).
Converted amounts (≈) assume the structure as drawn.

Key:
[1] = tested on: P388 mouse leukemia cells; test: Cytotoxicity against P388 mouse leukemia cells (crystal violet staining); format: cell-based; settings: 72 h, 3 days incubation, cell number reduced to 50% of control
Experimental: P388 mouse leukemia cells were plated into 96-well plate at the density of 2×10^3 cells/well. The compounds of the invention were dissolved in purified water or dimethylsulfoxide and the solution was diluted with medium to various concentrations and added to respective wells. After the plate was incubated for 3 days, the cultures were fixed with glutaraldehyde and the number of survived cells were determined by crystal violet staining method.

[2] = tested on: P388 mouse leukemia cells; test: Antineoplastic action: increase in life span of CDF1 mice bearing P388 mouse leukemia cells; format: in vivo; settings: P388, ip
Experimental: P388 mouse leukemia cells (1×10^6 cells/mouse) were injected intraperitoneally into CDF1 mouse. Each of the compound of the invention dissolved in 5% glucose or 5% dimethylsulfoxide at each of predetermined concentration was injected intraperitoneally on 1 and 5 days after injection. The antitumor activity thereof was evaluated as percentage of increase in life span (ILS %) compared to the mean survival of the untreated control group.

[3] = i.p. on 1 and 5 days after tumor injection, CDF1 mouse, vs untreated control

Structure (SMILES)	IC50 [1] [ng/mL]	also measured
CN(C)CCNc1nc2ccccc2c2c1C(=O)c1cc3c(cc1-2)OCO3 [Compound 66-a]	1.2 (≈ 3.32 nM)	ILS at 44 mg/kg/day [2, 3]: 141%
CN(C)CCNc1nc2cc(F)ccc2c2c1C(=O)c1ccccc1-2.Cl.Cl [Compound 2, 6-(((dimethylamino)ethyl)amino)-3-fluoro-7H-indeno[2,1-c]quinoline-7-on dihydrochloride]	4.8	ILS at 67 mg/kg/day [2, 3]: 85%
O=C1c2ccccc2-c2c1c(NCCNCCO)nc1cc(O)ccc21 [Compound 55]	0.95 (≈ 2.72 nM)	–
CN(C)CCNc1nc2ccccc2c2c1C(=O)c1ccccc1-2 [Compound 28-a]	2 (≈ 6.3 nM)	ILS at 67 mg/kg/day [2, 3]: 180%
CN(C)CCNc1nc2ccccc2c2c1C(=O)c1cc(O)ccc1-2 [Compound 47-a]	1.3 (≈ 3.9 nM)	ILS at 44 mg/kg/day [2, 3]: 130%
CN(C)CCOc1nc2ccccc2c2c1C(=O)c1cc3c(cc1-2)OCO3 [Compound 64-a]	0.87 (≈ 2.4 nM)	ILS at 67 mg/kg/day [2, 3]: 153%
CN(C)CCNc1nc2cc3c(cc2c2c1C(=O)c1ccccc1-2)OCO3 [Compound 73-a]	13 (≈ 36 nM)	ILS at 44 mg/kg/day [2, 3]: 129%
CN1CCN(c2nc3c(c4ccccc24)-c2ccccc2C3=O)CC1 [Compound 75, 6-(1-(4-methylpiperazinyl))-7H-indeno[2,1-c]isoquinoline-7-on]	450 (≈ 1370 nM)	–
O=C1c2ccccc2-c2c1c(NCCN1CCCC1)nc1cc(O)ccc21 [Compound 26-a]	0.42 (≈ 1.17 nM)	ILS at 30 mg/kg/day [2, 3]: 70.6%
CN(C)CCNc1nc2cc(O)ccc2c2c1C(=O)c1ccccc1-2 [Compound 3-a]	–	ILS at 10 mg/kg/day ([2]; Mus musculus, read-out: Increase in life span (ILS %)): 94.4%
CN(C)CCNc1nc2ccc(O)cc2c2c1C(=O)c1ccccc1-2 [Compound 31-a]	6 (≈ 18 nM)	ILS at 30 mg/kg/day [2, 3]: 48.5%
CN(C)CCOc1nc2cc(O)ccc2c2c1C(=O)c1ccccc1-2 [Compound 62]	0.3 (≈ 0.897 nM)	–
CN(C)CCNc1nc2cc(O)ccc2c2c1C(=O)c1cc(O)ccc1-2 [Compound 50-a]	1.1 (≈ 3.15 nM)	ILS at 20 mg/kg/day ([2]; dose 20 mg/kg/day, i.p. on 1 and 5 days after tumor injection, CDF1 mouse, vs untreated control): 45.2%
CNCCNc1nc2cc(O)ccc2c2c1C(=O)c1ccccc1-2.Cl.Cl.Cl [Compound 60, 6-(((methylamino)ethyl)amino)-3-hydroxy-7H-indeno[2,1-c]quinoline-7-on-trihydrochloride]	0.66	–
CN(C)CCNc1nc2cc(O)ccc2c2c1C(=O)c1cc(Cl)ccc1-2 [Compound 23-a]	0.11 (≈ 0.299 nM)	–
CN(C)CCN(C)c1nc2c(c3ccccc13)-c1ccccc1C2=O [Compound 76]	160 (≈ 483 nM)	ILS at 100 mg/kg/day [2, 3]: 75%
CN(C)CCNc1nc2ccccc2c2c1C(=O)c1ccc(O)cc1-2 [Compound 49-a]	2 (≈ 6 nM)	ILS at 150 mg/kg/day [2, 3]: 66.7%
CN(C)CCNc1nc2cc(N)ccc2c2c1C(=O)c1ccccc1-2 [Compound 41-a]	11 (≈ 33.1 nM)	ILS at 67 mg/kg/day [2, 3]: 306%
COc1ccc2c3c(c(NCCN(C)C)nc2c1)C(=O)c1ccccc1-3 [Compound 1-a]	24 (≈ 69.1 nM)	ILS at 100 mg/kg/day [2, 3]: 68%
CN1CCN(c2nc3cc(O)ccc3c3c2C(=O)c2ccccc2-3)CC1 [Compound 9-a]	7.4 (≈ 21.4 nM)	ILS at 150 mg/kg/day [2, 3]: 60%
CCN(CC)CCNc1nc2cc(O)ccc2c2c1C(=O)c1ccccc1-2 [Compound 7]	0.65 (≈ 1.8 nM)	ILS at 44 mg/kg/day [2, 3]: 223%
